From patent US7118895B2, “Process for producing aglycon by using diglycosidase and flavor-improved food containing the aglycon and converting agent to be used in the process” (Amano Enzyme Inc., priority 2000, dated 2006)

Tested on: Crude diglycosidase
Experiment: Examination of pH in the conversion into isoflavone aglycons by diglycosidase using soybean materials
Type: biochemical, Penicillium multicolor IAM7153
Details: for Decomposition efficiency of glycitin family in roasted soy flour / Decomposition efficiency of glycitin family in soymilk: 55° C.
In short: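 Suspensions of 50 mg roasted soy flour, soymilk, defatted soybean or concentrated soy protein were brought to pH 2 to 11 with HCl or NaOH and reacted at 55° C with crude diglycosidase (enzyme solution at 1.88 AU/mL, same pH). Ethanol-stopped samples at 0, 1, 3 and 6 h were analysed by HPLC.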

[1] = pH6.6, heat treatment of enzyme: no, reaction time 0 h
[2] = pH6.6, heat treatment of enzyme: no, reaction time 1 h
[3] = pH6.6, heat treatment of enzyme: no, reaction time 3 h
[4] = pH6.6, heat treatment of enzyme: no, reaction time 6 h
[5] = pH6.6, heat treatment of enzyme: yes, reaction time 6 h

`COc1cc2c(=O)c(-c3ccc(O)cc3)coc2cc1O[C@@H]1O[C@H](COC(C)=O)[C@@H](O)[C@H](O)[C@H]1O` [acetylglycitin, 6″-O-acetylglycitin] was tested, and the “Decomposition efficiency of glycitin family in defatted soybean” value (pH4.8, heat treatment of enzyme: no, reaction time 3 h) was “not detected”, the “Decomposition efficiency of glycitin family in defatted soybean” value (pH4.8, heat treatment of enzyme: no, reaction time 6 h) was “not detected” and the “Decomposition efficiency of glycitin family in defatted soybean” value (pH4.8, heat treatment of enzyme: yes, reaction time 6 h) was “not detected”. The “Decomposition efficiency of glycitin family in roasted soy flour” value (pH5, heat treatment of enzyme no, reaction time 0 h) was 34.8, the “Decomposition efficiency of glycitin family in roasted soy flour” value (pH5, heat treatment of enzyme no, reaction time 1 h) was 22.9 and the “Decomposition efficiency of glycitin family in roasted soy flour” value (pH5, heat treatment of enzyme no, reaction time 3 h) was 6.5. The “Decomposition efficiency of glycitin family in roasted soy flour” value (pH5, heat treatment of enzyme no, reaction time 6 h) was “not detected”, the “Decomposition efficiency of glycitin family in roasted soy flour” value (pH5, heat treatment of enzyme yes, reaction time 6 h) was 35.2 and the “Decomposition efficiency of glycitin family in concentrated soybean protein” value (pH5.1, heat treatment of enzyme: no, reaction time 0 h) was 36.1%. For the same compound, the “Decomposition efficiency of glycitin family in concentrated soybean protein” value (pH5.1, heat treatment of enzyme: no, reaction time 1 h) was 33.2%, the “Decomposition efficiency of glycitin family in concentrated soybean protein” value (pH5.1, heat treatment of enzyme: no, reaction time 3 h) was 26.0% and the “Decomposition efficiency of glycitin family in concentrated soybean protein” value (pH5.1, heat treatment of enzyme: no, reaction time 6 h) was 21.0%. For the same compound, the “Decomposition efficiency of glycitin family in concentrated soybean protein” value (pH5.1, heat treatment of enzyme: yes, reaction time 6 h) was 35.8%, the “Decomposition efficiency of glycitin family in defatted soybean” value (pH5.4, heat treatment of enzyme: no, reaction time 0 h) was “not detected” and the “Decomposition efficiency of glycitin family in defatted soybean” value (pH5.4, heat treatment of enzyme: no, reaction time 1 h) was “not detected”. For the same compound, the “Decomposition efficiency of glycitin family in defatted soybean” value (pH5.4, heat treatment of enzyme: no, reaction time 3 h) was “not detected”, the “Decomposition efficiency of glycitin family in defatted soybean” value (pH5.4, heat treatment of enzyme: no, reaction time 6 h) was “not detected” and the “Decomposition efficiency of glycitin family in defatted soybean” value (pH5.4, heat treatment of enzyme: yes, reaction time 6 h) was “not detected”. For the same compound, the “Decomposition efficiency of glycitin family in soymilk” value (“Decomposition efficiency … in soymilk” below) (pH6.2, heat treatment of enzyme no, reaction time 0 h) was “not detected”, the “Decomposition efficiency … in soymilk” value (pH6.2, heat treatment of enzyme no, reaction time 1 h) was “not detected” and the “Decomposition efficiency … in soymilk” value (pH6.2, heat treatment of enzyme no, reaction time 3 h) was “not detected”. The “Decomposition efficiency … in soymilk” value (pH6.2, heat treatment of enzyme no, reaction time 6 h) was “not detected”, the “Decomposition efficiency … in soymilk” value (pH6.2, heat treatment of enzyme yes, reaction time 6 h) was “not detected” and the “Decomposition efficiency of glycitin family in roasted soy flour” value (pH6.5, heat treatment of enzyme no, reaction time 0 h) was 35.4. For the same compound, the “Decomposition efficiency of glycitin family in roasted soy flour” value (pH6.5, heat treatment of enzyme no, reaction time 1 h) was 35.0, the “Decomposition efficiency of glycitin family in roasted soy flour” value (pH6.5, heat treatment of enzyme no, reaction time 3 h) was 19.7 and the “Decomposition efficiency of glycitin family in roasted soy flour” value (pH6.5, heat treatment of enzyme no, reaction time 6 h) was 11.9. The “Decomposition efficiency of glycitin family in roasted soy flour” value (pH6.5, heat treatment of enzyme yes, reaction time 6 h) was 35.4, the “Decomposition efficiency of glycitin family in concentrated soybean protein” value [1] was 36.1% and the “Decomposition efficiency of glycitin family in defatted soybean” value [1] was “not detected”. For the same compound, the “Decomposition efficiency of glycitin family in concentrated soybean protein” value [2] was 34.8%, the “Decomposition efficiency of glycitin family in defatted soybean” value [2] was “not detected” and the “Decomposition efficiency of glycitin family in concentrated soybean protein” value [3] was 32.4%. For the same compound, the “Decomposition efficiency of glycitin family in defatted soybean” value [3] was “not detected”, the “Decomposition efficiency of glycitin family in concentrated soybean protein” value [4] was 29.5% and the “Decomposition efficiency of glycitin family in defatted soybean” value [4] was “not detected”. For the same compound, the “Decomposition efficiency of glycitin family in concentrated soybean protein” value [5] was 35.2%, the “Decomposition efficiency of glycitin family in defatted soybean” value [5] was “not detected” and the “Decomposition efficiency … in soymilk” value (pH7.2, heat treatment of enzyme no, reaction time 0 h) was “not detected”. For the same compound, the “Decomposition efficiency … in soymilk” value (pH7.2, heat treatment of enzyme no, reaction time 1 h) was “not detected”, the “Decomposition efficiency … in soymilk” value (pH7.2, heat treatment of enzyme no, reaction time 3 h) was “not detected” and the “Decomposition efficiency … in soymilk” value (pH7.2, heat treatment of enzyme no, reaction time 6 h) was “not detected”. For the same compound, the “Decomposition efficiency … in soymilk” value (pH7.2, heat treatment of enzyme yes, reaction time 6 h) was “not detected”, the “Decomposition efficiency of glycitin family in defatted soybean” value (pH7.8, heat treatment of enzyme: no, reaction time 0 h) was “not detected” and the “Decomposition efficiency of glycitin family in defatted soybean” value (pH7.8, heat treatment of enzyme: no, reaction time 1 h) was “not detected”. The “Decomposition efficiency of glycitin family in defatted soybean” value (pH7.8, heat treatment of enzyme: no, reaction time 3 h) was “not detected”, the “Decomposition efficiency of glycitin family in defatted soybean” value (pH7.8, heat treatment of enzyme: no, reaction time 6 h) was “not detected” and the “Decomposition efficiency of glycitin family in defatted soybean” value (pH7.8, heat treatment of enzyme: yes, reaction time 6 h) was “not detected”. For the same compound, the “Decomposition efficiency of glycitin family in roasted soy flour” value (pH8.5, heat treatment of enzyme no, reaction time 0 h) was 31.0, the “Decomposition efficiency of glycitin family in roasted soy flour” value (pH8.5, heat treatment of enzyme no, reaction time 1 h) was 32.4 and the “Decomposition efficiency of glycitin family in roasted soy flour” value (pH8.5, heat treatment of enzyme no, reaction time 3 h) was 30.6. The “Decomposition efficiency of glycitin family in roasted soy flour” value (pH8.5, heat treatment of enzyme no, reaction time 6 h) was 30.2, the “Decomposition efficiency of glycitin family in roasted soy flour” value (pH8.5, heat treatment of enzyme yes, reaction time 6 h) was 31.7 and the “Decomposition efficiency of glycitin family in concentrated soybean protein” value (pH8.6, heat treatment of enzyme: no, reaction time 0 h) was 33.0%. For the same compound, the “Decomposition efficiency of glycitin family in concentrated soybean protein” value (pH8.6, heat treatment of enzyme: no, reaction time 1 h) was 32.6%, the “Decomposition efficiency of glycitin family in concentrated soybean protein” value (pH8.6, heat treatment of enzyme: no, reaction time 3 h) was 32.6% and the “Decomposition efficiency of glycitin family in concentrated soybean protein” value (pH8.6, heat treatment of enzyme: no, reaction time 6 h) was 32.0%. For the same compound, the “Decomposition efficiency of glycitin family in concentrated soybean protein” value (pH8.6, heat treatment of enzyme: yes, reaction time 6 h) was 31.6%, the “Decomposition efficiency … in soymilk” value (pH11.6, heat treatment of enzyme no, reaction time 0 h) was “not detected” and the “Decomposition efficiency … in soymilk” value (pH11.6, heat treatment of enzyme no, reaction time 1 h) was “not detected”. For the same compound, the “Decomposition efficiency … in soymilk” value (pH11.6, heat treatment of enzyme no, reaction time 3 h) was “not detected”, the “Decomposition efficiency … in soymilk” value (pH11.6, heat treatment of enzyme no, reaction time 6 h) was “not detected” and the “Decomposition efficiency … in soymilk” value (pH11.6, heat treatment of enzyme yes, reaction time 6 h) was “not detected”.
